Test systems include NCI-H522 lung; SK-MEL-5 melanoma; COLO 205 colon; SR leukemia; DU-145 prostate; A549 NSCLC; HCT-15 colon; NCI/ADR-RES ovarian; IGROV1 ovarian; CCRF-CEM leukemia.
What all share (experiment): DTP human tumour cell line panel, 48 h

The results in this text go back to PubChem BioAssay (NCI).

As usually defined, the TGI is the concentration at which net growth stops. A higher TGI goes with lower sensitivity of the cells. In general, GI50 refers to the concentration at which growth is held to half of that of the control.

Values joined by “and” are separate entries in the source; they are usually repeats but may differ in a detail not shown here. Equal values may be shown once.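 Tested at 5 concentrations; 48 h exposure; 96-well plates; endpoints linearly interpolated, else capped at highest concentration. GI50: concentration for 50% inhibition of growth. At the TGI there is no net growth.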

Take `NCCNCC(O)CO` (configuration not stated): the TGI in the test on NCI-H522 lung, in the test with SK-MEL-5 melanoma, in the test on COLO 205 colon, in the test with SR leukemia, in the test with DU-145 prostate and with A549 NSCLC was > 100 µM throughout. Moreover, the total growth inhibition concentration (TGI) in the test on HCT-15 colon, in the test on NCI/ADR-RES ovarian and with IGROV1 ovarian was > 100 µM in each case.
Turning to `CC(=O)OCC1OC(OC2CC3C(C)(C)C(OC(C)=O)CC[C@]3(C)C3CCC45CC4(CC[C@H]5C(C)CC(O)C4OC4(C)C)[C@]23C)C(O)C(O)C1O` (some centres not stated), the GI50 with NCI-H522 lung was 1.91 µM; in the test with COLO 205 colon, 2.05 µM; with CCRF-CEM leukemia, 2.19 µM; in the test with A549 NSCLC, 4.26 µM; in the test with HCT-15 colon, 4.04 µM; in the test with IGROV1 ovarian, 2.42 µM. Further, the TGI in the test on NCI-H522 lung was 5.33 µM and 3.91 µM; with SK-MEL-5 melanoma, 5.79 µM; in the test on COLO 205 colon it was 1.84 µM and 3.79 µM; in the test on SR leukemia, 8.58 µM; in the test on CCRF-CEM leukemia, 2.3 µM and 5.04 µM; in the test with A549 NSCLC, 8.37 µM and 15.2 µM. The TGI in the test on HCT-15 colon was 6 µM and 13.3 µM; in the test on IGROV1 ovarian it was 0.829 µM and 4.56 µM.
Take `Nc1ccn([C@H]2C[C@@H](O)[C@@H](CO)S2)c(=O)n1`: the TGI in the test on NCI-H522 lung, with SK-MEL-5 melanoma, in the test on COLO 205 colon, with SR leukemia, with DU-145 prostate and in the test on A549 NSCLC was > 100 µM throughout. In addition, the TGI with HCT-15 colon, in the test with NCI/ADR-RES ovarian and in the test on IGROV1 ovarian was > 100 µM in each case. Besides, the GI50 in the test on SK-MEL-5 melanoma was > 42.3 µM; in the test with COLO 205 colon, > 89.8 µM; in the test on SR leukemia, > 100 µM; in the test with DU-145 prostate, > 100 µM; in the test with A549 NSCLC, > 100 µM; with HCT-15 colon it was 11.8 µM. The figures for the GI50 in the test with NCI/ADR-RES ovarian and in the test with IGROV1 ovarian were 19.6 µM and > 100 µM, respectively.
Take `CCc1cccc(C(C)C)c1NC(=O)C(=O)C(C(=O)C(=O)OC)c1nc2ccccc2[nH]c1=O` (configuration not stated): the concentration for total growth inhibition (TGI) in the test with NCI-H522 lung, in the test on SK-MEL-5 melanoma, in the test on COLO 205 colon, with SR leukemia, in the test on CCRF-CEM leukemia and in the test with A549 NSCLC was > 100 µM in each case. In addition, the concentration for total growth inhibition (TGI) with HCT-15 colon and in the test with IGROV1 ovarian was > 100 µM throughout.
Take `C=C(CN(CC(=C)C(=O)c1ccccc1)C(C)(C)C)C(=O)c1ccccc1`: the TGI was 29.4 µM in the test on NCI-H522 lung; 31.1 µM with SK-MEL-5 melanoma; 7.52 µM in the test on COLO 205 colon; > 21 µM in the test with SR leukemia; 40.3 µM with DU-145 prostate; > 21 µM in the test with CCRF-CEM leukemia. For the same compound, the results for the total growth inhibition concentration (TGI) in the test with A549 NSCLC and in the test on IGROV1 ovarian were > 77.7 µM and 40.3 µM, respectively.
Turning to `FC(F)(F)c1ccc(C=NC23CC4CC(CC(C4)C2)C3)cc1`, the TGI in the test with NCI-H522 lung, in the test on SK-MEL-5 melanoma, in the test with COLO 205 colon, with SR leukemia, in the test on CCRF-CEM leukemia and in the test with A549 NSCLC was > 100 µM throughout. Moreover, the concentration for total growth inhibition (TGI) in the test on HCT-15 colon and in the test with IGROV1 ovarian was > 100 µM in each case.
`COC(=O)c1ccccc1NC(=O)C(=O)CC(=O)c1ccccc1NC1=CC(=O)C(=O)c2ccccc21`: the TGI in the test with NCI-H522 lung is 21.4 µM; with SK-MEL-5 melanoma it was 14.2 µM; in the test on COLO 205 colon, 53.1 µM; with SR leukemia it was > 100 µM; with DU-145 prostate, > 53.8 µM; in the test on CCRF-CEM leukemia it was 33.9 µM. Further, the TGI in the test with A549 NSCLC is 41 µM; in the test on HCT-15 colon, 34.1 µM; in the test with IGROV1 ovarian, > 59.6 µM.
For the compound `N#CC1C(=N)Cc2ccccc2-c2ccccc21` (configuration not stated), the GI50 in the test on NCI-H522 lung was 5.72 µM; in the test with SK-MEL-5 melanoma it was 3.35 µM; with COLO 205 colon, 3.82 µM; in the test on SR leukemia, 3.31 µM; in the test on DU-145 prostate, 6.92 µM; in the test on CCRF-CEM leukemia, 4.42 µM. For the same compound, the GI50 in the test with A549 NSCLC was 4.58 µM; in the test with NCI/ADR-RES ovarian, 3.33 µM. For the same compound, the TGI was 30.6 µM in the test with NCI-H522 lung; 11.1 µM in the test on SK-MEL-5 melanoma; 20.9 µM with COLO 205 colon; 20.7 µM in the test with SR leukemia; 49.7 µM in the test on DU-145 prostate; > 100 µM with CCRF-CEM leukemia. The total growth inhibition concentration (TGI) in the test with A549 NSCLC was > 100 µM; in the test with NCI/ADR-RES ovarian, 28.9 µM.
For `O=C(Nc1cnn2ccc(N3CCC[C@@H]3c3cc(F)ccc3F)nc12)N1CC[C@H](O)C1`, the GI50 in the test with NCI-H522 lung, with SK-MEL-5 melanoma, in the test with COLO 205 colon, with SR leukemia, in the test with DU-145 prostate and with A549 NSCLC was > 100 µM each time. Also, the GI50 with HCT-15 colon, in the test with NCI/ADR-RES ovarian and in the test with IGROV1 ovarian was > 100 µM throughout. Also, the total growth inhibition concentration (TGI) with NCI-H522 lung, with SK-MEL-5 melanoma, in the test on COLO 205 colon, with SR leukemia, with DU-145 prostate and in the test on A549 NSCLC was > 100 µM throughout. In addition, the TGI in the test on HCT-15 colon, with NCI/ADR-RES ovarian and in the test on IGROV1 ovarian was > 100 µM each time.
